{"source": "patent US20070282007A1", "about": "“TREATMENT OF PAIN DISORDERS WITH trans 4-(3,4-DICHLOROPHENYL)-1,2,3,4-TETRAHYDRO-1-NAPHTHALENAMINE AND ITS FORMAMIDE” (SEPRACOR INC., priority 2006, published 2007)", "key": {"[1]": {"target": "T1, 5-HT1A (Homo sapiens, UniProt P08908)", "T1 sequence (P08908 1-422)": "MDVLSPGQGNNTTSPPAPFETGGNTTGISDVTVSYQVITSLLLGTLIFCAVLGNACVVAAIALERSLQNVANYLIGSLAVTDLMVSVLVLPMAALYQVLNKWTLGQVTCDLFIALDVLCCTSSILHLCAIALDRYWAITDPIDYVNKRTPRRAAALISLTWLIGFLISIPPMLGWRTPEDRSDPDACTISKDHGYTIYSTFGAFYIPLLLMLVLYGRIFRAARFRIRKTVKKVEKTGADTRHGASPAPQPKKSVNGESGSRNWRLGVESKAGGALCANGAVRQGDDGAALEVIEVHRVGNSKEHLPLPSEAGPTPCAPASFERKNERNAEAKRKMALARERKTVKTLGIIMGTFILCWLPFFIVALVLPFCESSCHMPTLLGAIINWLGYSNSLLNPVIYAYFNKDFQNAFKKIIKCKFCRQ", "test": "In vitro radioligand binding assay, 5-HT1A"}, "[2]": {"tested_on": "Rat SNL Model", "test": "SNL model of neuropathic pain, mechanical allodynia testing", "type": "in vivo", "method": "The animals were anesthetized with isoflurane, the left L5 transverse process was removed, and the L5 and L6 spinal nerves were tightly ligated with 6-0 silk suture. The wound was then closed with internal sutures and external staples. Wound clips were removed 10-11 days following surgery.\nAnimals were placed on a perforated metallic platform and allowed to acclimate to their surroundings for a minimum of 30 minutes before testing. The mean and standard error of the mean (SEM) were determined for each animal in each treatment group. Since this stimulus is normally not considered painful, significant injury-induced increases in responsiveness in this test are interpreted as a measure of mechanical allodynia. Mechanical allodynia was evaluated 14 days post-surgery.\nTen rats were studied per group and the tests were performed blind. (1R,4S)-4-(3,4-dichlorophenyl)-1,2,3,4-tetrahydro-1-naphthalenamine (P) was evaluated at 3 doses (5, 10 and 15 mg/kg), administered orally and compared with a vehicle control group. Gabapentin (100 mg/kg) and duloxetine (30 mg/kg) administered orally under the same experimental conditions, were used as comparator substances. Mechanical allodynia and hyperalgesia testing were conducted at baseline and 1, 2 and 4 hours after test article administration."}, "[3]": {"target": "D1 (Homo sapiens, UniProt P21728)", "sequence (P21728 whole entry)": "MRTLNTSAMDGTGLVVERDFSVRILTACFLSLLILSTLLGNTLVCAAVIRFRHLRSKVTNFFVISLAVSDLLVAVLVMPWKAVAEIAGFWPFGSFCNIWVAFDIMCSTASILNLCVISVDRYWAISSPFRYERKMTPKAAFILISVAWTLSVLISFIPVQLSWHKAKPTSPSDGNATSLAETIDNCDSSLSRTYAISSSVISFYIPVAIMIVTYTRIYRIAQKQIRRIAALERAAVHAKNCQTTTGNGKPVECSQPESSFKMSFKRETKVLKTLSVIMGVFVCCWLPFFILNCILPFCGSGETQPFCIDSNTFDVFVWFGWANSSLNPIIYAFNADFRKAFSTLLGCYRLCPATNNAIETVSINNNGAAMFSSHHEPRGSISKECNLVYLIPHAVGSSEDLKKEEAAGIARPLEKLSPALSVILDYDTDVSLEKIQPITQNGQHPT", "test": "In vitro radioligand binding assay, D1"}, "[4]": {"target": "T2, DA transporter (Homo sapiens, UniProt Q01959)", "T2 construct": "expressed in transfected cells", "T2 sequence (Q01959 whole entry)": "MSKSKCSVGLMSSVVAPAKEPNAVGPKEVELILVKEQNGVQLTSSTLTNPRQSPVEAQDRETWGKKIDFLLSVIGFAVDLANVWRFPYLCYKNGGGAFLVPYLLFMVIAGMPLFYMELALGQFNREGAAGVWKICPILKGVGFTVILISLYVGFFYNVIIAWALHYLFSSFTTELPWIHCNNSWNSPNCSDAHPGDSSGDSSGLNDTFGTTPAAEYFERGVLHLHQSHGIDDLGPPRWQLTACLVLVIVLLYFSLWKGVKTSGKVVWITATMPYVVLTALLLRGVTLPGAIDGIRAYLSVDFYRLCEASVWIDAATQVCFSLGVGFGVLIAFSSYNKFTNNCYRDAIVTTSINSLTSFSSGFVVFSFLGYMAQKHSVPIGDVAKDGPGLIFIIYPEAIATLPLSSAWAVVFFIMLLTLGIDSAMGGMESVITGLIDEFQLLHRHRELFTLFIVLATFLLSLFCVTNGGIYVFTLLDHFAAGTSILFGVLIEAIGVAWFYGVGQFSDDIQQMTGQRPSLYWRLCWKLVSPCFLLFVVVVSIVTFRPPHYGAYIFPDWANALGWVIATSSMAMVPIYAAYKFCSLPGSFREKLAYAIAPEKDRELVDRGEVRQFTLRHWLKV", "test": "Radioligand binding assay, DA transporter ([3H]GBR 12935 displacement)", "settings": "human recombinant; [3H]GBR 12935 0.5 nM; read-out: Ki, Dopamine (DA) transporter", "method": "The assays measured the affinity of the two compounds for transporters of the monoamines 5-HT, NE and DA. […] The transporters were human recombinant proteins expressed in mammalian cells. Binding to the 5-HT transporter was assessed by evaluating displacement of [^3H]paroxetine (0.1 nM). […] Binding to the NE transporter was assessed by evaluating displacement of [^3H]nisoxetine (0.3 nM)."}, "[5]": {"target": "T3, recombinant human Dopamine (DA) transporter (Homo sapiens, UniProt Q01959)", "T3 construct": "expressed in transfected cells", "T3 sequence (Q01959 whole entry)": "as above", "test": "Functional uptake of DA into cells expressing recombinant human transporters", "type": "cell-based", "settings": "read-out: IC50 inhibition of functional uptake in human transporters, Dopamine (DA)"}, "[6]": {"target": "5-HT1B (Homo sapiens, UniProt P28222)", "sequence (P28222 whole entry, species assumed)": "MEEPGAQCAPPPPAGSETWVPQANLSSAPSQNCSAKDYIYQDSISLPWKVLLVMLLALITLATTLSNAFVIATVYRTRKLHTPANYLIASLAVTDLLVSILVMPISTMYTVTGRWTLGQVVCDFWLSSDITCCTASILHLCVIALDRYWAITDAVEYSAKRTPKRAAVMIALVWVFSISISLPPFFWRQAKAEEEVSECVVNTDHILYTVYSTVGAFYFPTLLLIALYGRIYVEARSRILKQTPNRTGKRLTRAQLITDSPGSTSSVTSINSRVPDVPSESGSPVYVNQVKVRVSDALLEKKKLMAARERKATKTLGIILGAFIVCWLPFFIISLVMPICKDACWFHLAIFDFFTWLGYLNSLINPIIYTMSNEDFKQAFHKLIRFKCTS", "test": "In vitro radioligand binding assay, 5-HT1B"}, "[7]": {"tested_on": "rats", "test": "Formalin test, second test with Automated Nociception Analyzer", "type": "in vivo, rat", "settings": "automated detection; for Number of Flinches, Acute Phase (Mean ± SEM): 0-10 minutes after formalin; for Number of Flinches, Late Phase (Mean ± SEM): 10-60 minutes after formalin", "method": "In a second test, flinching behaviors were measured for 90 minutes after formalin injection using an automated detection system. […] This device used a magnetic detection system to measure paw movements, called “flinches”. Small metal bands were attached to the left hind paw of rats just before placement into individual circular test chambers 30 minutes prior to formalin injection. […] In addition to duloxetine, morphine (6 mg/kg, subcutaneously) was used as a comparator substance. Animals were treated with morphine 30 minutes prior to the formalin injection. To initiate the experiment, the rats were injected with formalin subcutaneously on the dorsal surface of the left hind paw and placed in the test chambers. The instrument subsequently recorded rapid foot movements counted in one minute epochs."}, "[8]": {"target": "B2 (Homo sapiens, UniProt P30411)", "sequence (P30411 whole entry)": "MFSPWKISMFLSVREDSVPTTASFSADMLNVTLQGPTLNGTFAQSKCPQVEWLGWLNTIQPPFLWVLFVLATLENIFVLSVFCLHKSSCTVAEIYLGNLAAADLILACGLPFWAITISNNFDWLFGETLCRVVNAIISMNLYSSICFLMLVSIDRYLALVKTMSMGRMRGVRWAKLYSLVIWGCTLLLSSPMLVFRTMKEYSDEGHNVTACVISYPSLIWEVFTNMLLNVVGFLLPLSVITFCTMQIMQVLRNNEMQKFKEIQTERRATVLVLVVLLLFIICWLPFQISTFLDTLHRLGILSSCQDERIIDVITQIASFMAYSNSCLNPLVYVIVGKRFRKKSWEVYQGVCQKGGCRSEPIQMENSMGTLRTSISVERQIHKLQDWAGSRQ", "test": "In vitro radioligand binding assay, B2"}, "[9]": {"tested_on": "Long-Evans derived rats", "test": "Spontaneous locomotor activity study", "type": "in vivo, rat", "settings": "mean ± SEM", "method": "The effects on locomotor activity were studied in Long-Evans derived rats following protocol outlined in Dews P., Br. J. Pharmacol., 8: 46 (1953).\nThis effect was still evident 2 hours following drug administration. On the basis of these studies, CNS effects and long duration of action may be anticipated at sufficient clinical doses."}, "[10]": {"target": "Ca^2+ Channel Verapamil Site", "test": "In vitro radioligand binding assay, Ca2+ channel verapamil site"}, "[11]": {"target": "H2 (Homo sapiens, UniProt P25021)", "sequence (P25021 whole entry)": "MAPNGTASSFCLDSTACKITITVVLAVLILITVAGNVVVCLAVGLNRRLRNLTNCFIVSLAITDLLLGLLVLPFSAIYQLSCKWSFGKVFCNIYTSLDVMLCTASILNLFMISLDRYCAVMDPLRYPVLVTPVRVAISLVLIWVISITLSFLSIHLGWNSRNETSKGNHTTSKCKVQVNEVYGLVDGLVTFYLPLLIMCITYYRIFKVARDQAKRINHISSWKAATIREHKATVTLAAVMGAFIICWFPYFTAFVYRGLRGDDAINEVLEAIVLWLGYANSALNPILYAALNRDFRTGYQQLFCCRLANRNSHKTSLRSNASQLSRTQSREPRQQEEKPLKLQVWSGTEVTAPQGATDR", "test": "In vitro radioligand binding assay, H2", "settings": "read-out: Ki, H2"}, "[12]": {"target": "M2 (Homo sapiens, UniProt P08172)", "sequence (P08172 whole entry)": "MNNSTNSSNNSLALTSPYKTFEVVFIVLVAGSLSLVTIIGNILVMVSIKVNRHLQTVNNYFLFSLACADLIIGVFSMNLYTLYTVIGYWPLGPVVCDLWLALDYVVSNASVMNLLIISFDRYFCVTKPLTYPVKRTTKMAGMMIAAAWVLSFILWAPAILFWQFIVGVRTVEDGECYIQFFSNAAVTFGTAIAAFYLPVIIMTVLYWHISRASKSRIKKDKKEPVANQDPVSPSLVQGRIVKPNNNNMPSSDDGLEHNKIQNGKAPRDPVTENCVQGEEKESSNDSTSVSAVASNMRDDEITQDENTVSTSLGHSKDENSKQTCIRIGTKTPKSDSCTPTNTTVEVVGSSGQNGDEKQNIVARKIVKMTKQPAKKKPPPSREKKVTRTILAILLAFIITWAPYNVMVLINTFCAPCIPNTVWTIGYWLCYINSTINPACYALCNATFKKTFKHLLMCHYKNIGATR", "test": "In vitro radioligand binding assay, M2"}, "[13]": {"tested_on": "Long-Evans derived rats", "test": "Porsolt forced swim test", "type": "in vivo, rat", "settings": "for Mean Immobility Time (% of Total) ± SEM, Day 2 Study: 3 administrations; for Mean Immobility Time (% of Total) ± SEM, Day 4 Study: 7 administrations", "method": "Performance in the Porsolt forced swim test was evaluated for sertraline and Compound P following protocols outlined in Porsolt R. D., et al., Arch. Int. Pharmacodyn., 229: 327 ([…]).\nThe Porsolt forced swim test is a model of “behavioral despair”, which has been used as an in vivo model for assessing potential antidepressant-like activity. Both test articles were dissolved in physiological saline (vehicle) and administered intraperitoneally. […] Long-Evans derived rats were used."}}, "data": [{"smiles": "N[C@@H]1CC[C@@H](c2ccc(Cl)c(Cl)c2)c2ccccc21", "note": "[Compound P, (1R,4S)-trans 4-(3,4-dichlorophenyl)-1,2,3,4-tetrahydro-1-napthalenamine]", "values": [{"measurement": "Ki", "setting": "[1]", "result": 1100, "unit": "nM"}, {"measurement": "Mechanical Allodynia, Paw Withdrawal Threshold (Mean ± SEM)", "setting": "[2]; 5 mg/kg PO, 0 h (Baseline)", "result": "3.1 ± 0.2", "unit": "g"}, {"measurement": "Mechanical Allodynia, Paw Withdrawal Threshold (Mean ± SEM)", "setting": "[2]; 5 mg/kg PO, 1 h", "result": "3.7 ± 0.3", "unit": "g"}, {"measurement": "Mechanical Allodynia, Paw Withdrawal Threshold (Mean ± SEM)", "setting": "[2]; 5 mg/kg PO, 2 h", "result": "3.2 ± 0.2", "unit": "g"}, {"measurement": "Mechanical Allodynia, Paw Withdrawal Threshold (Mean ± SEM)", "setting": "[2]; 5 mg/kg PO, 4 h", "result": "3.9 ± 0.2", "unit": "g"}, {"measurement": "Mechanical Allodynia, Paw Withdrawal Threshold (Mean ± SEM)", "setting": "[2]; 10 mg/kg PO, 0 h (Baseline)", "result": "2.8 ± 0.2", "unit": "g"}, {"measurement": "Mechanical Allodynia, Paw Withdrawal Threshold (Mean ± SEM)", "setting": "[2]; 10 mg/kg PO, 1 h", "result": "5.0 ± 0.3", "unit": "g"}, {"measurement": "Mechanical Allodynia, Paw Withdrawal Threshold (Mean ± SEM)", "setting": "[2]; 10 mg/kg PO, 2 h", "result": "5.7 ± 0.5", "unit": "g"}, {"measurement": "Mechanical Allodynia, Paw Withdrawal Threshold (Mean ± SEM)", "setting": "[2]; 10 mg/kg PO, 4 h", "result": "6.6 ± 0.4", "unit": "g"}, {"measurement": "Mechanical Allodynia, Paw Withdrawal Threshold (Mean ± SEM)", "setting": "[2]; 15 mg/kg PO, 0 h (Baseline)", "result": "2.9 ± 0.1", "unit": "g"}, {"measurement": "Mechanical Allodynia, Paw Withdrawal Threshold (Mean ± SEM)", "setting": "[2]; 15 mg/kg PO, 1 h", "result": "8.8 ± 0.6", "unit": "g"}, {"measurement": "Mechanical Allodynia, Paw Withdrawal Threshold (Mean ± SEM)", "setting": "[2]; 15 mg/kg PO, 2 h", "result": "7.5 ± 0.5", "unit": "g"}, {"measurement": "Mechanical Allodynia, Paw Withdrawal Threshold (Mean ± SEM)", "setting": "[2]; 15 mg/kg PO, 4 h", "result": "13.6 ± 0.3", "unit": "g"}, {"measurement": "Ki", "setting": "[3]", "result": 6800, "unit": "nM"}, {"measurement": "Ki", "setting": "[4]", "result": 16, "unit": "nM"}, {"measurement": "IC50", "setting": "[5]", "result": 12.9, "unit": "nM"}, {"measurement": "Ki", "setting": "[6]", "result": 1000, "unit": "nM"}, {"measurement": "Number of Flinches, Acute Phase (Mean ± SEM)", "setting": "[7]; 5 mg/kg PO", "result": "194 ± 33"}, {"measurement": "Number of Flinches, Late Phase (Mean ± SEM)", "setting": "[7]; 5 mg/kg PO", "result": "1263 ± 181"}, {"measurement": "Number of Flinches, Acute Phase (Mean ± SEM)", "setting": "[7]; 10 mg/kg PO", "result": "143 ± 27"}, {"measurement": "Number of Flinches, Late Phase (Mean ± SEM)", "setting": "[7]; 10 mg/kg PO", "result": "1679 ± 163"}, {"measurement": "Number of Flinches, Acute Phase (Mean ± SEM)", "setting": "[7]; 15 mg/kg PO", "result": "212 ± 40"}, {"measurement": "Number of Flinches, Late Phase (Mean ± SEM)", "setting": "[7]; 15 mg/kg PO", "result": "2236 ± 153"}, {"measurement": "Ki", "setting": "[8]", "result": 1500, "unit": "nM"}, {"measurement": "Total Activity Counts, 71–80 Minutes", "setting": "[9]; 2.5 mg/kg single i.p. dose", "result": "49 ± 6"}, {"measurement": "Total Activity Counts, 91–100 Minutes", "setting": "[9]; 2.5 mg/kg single i.p. dose", "result": "54 ± 9"}, {"measurement": "Total Activity Counts, 111–120 Minutes", "setting": "[9]; 2.5 mg/kg single i.p. dose", "result": "34 ± 9"}, {"measurement": "Total Activity Counts, Total 1st Hour", "setting": "[9]; 2.5 mg/kg single i.p. dose", "result": "577 ± 54^1"}, {"measurement": "Total Activity Counts, Total 2nd Hour", "setting": "[9]; 2.5 mg/kg single i.p. dose", "result": "257 ± 36"}, {"measurement": "Total Activity Counts, 71–80 Minutes", "setting": "[9]; 5.0 mg/kg single i.p. dose", "result": "38 ± 3"}, {"measurement": "Total Activity Counts, 91–100 Minutes", "setting": "[9]; 5.0 mg/kg single i.p. dose", "result": "26 ± 26"}, {"measurement": "Total Activity Counts, 111–120 Minutes", "setting": "[9]; 5.0 mg/kg single i.p. dose", "result": "23 ± 14"}, {"measurement": "Total Activity Counts, Total 1st Hour", "setting": "[9]; 5.0 mg/kg single i.p. dose", "result": "444 ± 91"}, {"measurement": "Total Activity Counts, Total 2nd Hour", "setting": "[9]; 5.0 mg/kg single i.p. dose", "result": "160 ± 32"}, {"measurement": "Ki", "setting": "[10]", "result": 1000, "unit": "nM"}, {"measurement": "Ki", "setting": "[11]", "result": 4000, "unit": "nM"}, {"measurement": "Ki", "setting": "[12]", "result": 5000, "unit": "nM"}, {"measurement": "Mean Immobility Time (% of Total) ± SEM, Day 2 Study", "setting": "[13]; 1.25 mg/kg i.p.", "result": "77 ± 3 % of Total"}, {"measurement": "Mean Immobility Time (% of Total) ± SEM, Day 4 Study", "setting": "[13]; 1.25 mg/kg i.p.", "result": "69 ± 4 % of Total"}, {"measurement": "Mean Immobility Time (% of Total) ± SEM, Day 2 Study", "setting": "[13]; 2.5 mg/kg i.p.", "result": "48 ± 6 % of Total"}, {"measurement": "Mean Immobility Time (% of Total) ± SEM, Day 4 Study", "setting": "[13]; 2.5 mg/kg i.p.", "result": "46 ± 8 % of Total"}, {"measurement": "Mean Immobility Time (% of Total) ± SEM, Day 2 Study", "setting": "[13]; 5.0 mg/kg i.p.", "result": "49 ± 5 % of Total"}, {"measurement": "Mean Immobility Time (% of Total) ± SEM, Day 4 Study", "setting": "[13]; 5.0 mg/kg i.p.", "result": "19 ± 6 % of Total"}]}]}
